Numbers after ± are expanded uncertainties.
Test: xn = mol fraction of the nth substance listed
Conditions: 100.9 kPa, Liquid; for viscosity: Concentric cylinders viscometry; for speed of sound: Single path-length method; for mass density: Vibrating tube method

CCCC(=O)[O-].CC[NH2+]CC [diethylammonium butanoate] + O
Conditions	mass density [kg/m3]	speed of sound [m/s]	viscosity [mPa·s]
283.15 K, x1 = 0.0122	–	–	2.24 ± 0.02
283.15 K, x1 = 0.0123	1003.65 ± 0.4	1576.3 ± 0.23	–
283.15 K, x1 = 0.0451	–	–	6.91 ± 0.04
283.15 K, x1 = 0.0453	1013.08 ± 0.4	1794.6 ± 0.4	–
283.15 K, x1 = 0.0999	–	–	19.26 ± 0.08
283.15 K, x1 = 0.1005	1011.54 ± 0.4	1814.6 ± 0.28	–
283.15 K, x1 = 0.143	–	–	32.03 ± 0.14
283.15 K, x1 = 0.1439	1001.71 ± 0.41	1786.4 ± 0.34	–
283.15 K, x1 = 0.2051	–	–	56.72 ± 0.23
283.15 K, x1 = 0.2067	989.91 ± 0.41	1733.5 ± 0.41	–
283.15 K, x1 = 0.3064	–	–	106.48 ± 1.2
283.15 K, x1 = 0.3096	976.25 ± 0.42	–	–
283.15 K, x1 = 0.4879	–	–	158.58 ± 2.6
283.15 K, x1 = 0.4951	956.67 ± 0.47	1577.4 ± 0.65	–
283.15 K, x1 = 0.6684	–	–	158.29 ± 2.7
283.15 K, x1 = 0.6812	941.81 ± 0.55	1516.2 ± 0.76	–
283.15 K, x1 = 0.7974	930.25 ± 0.62	1494.8 ± 0.84	–
283.15 K, x1 = 0.974	925.8 ± 0.77	1460.5 ± 0.98	130.18 ± 2.1
285.65 K, x1 = 0.0122	–	–	2.07 ± 0.02
285.65 K, x1 = 0.0451	–	–	6.16 ± 0.03
285.65 K, x1 = 0.0999	–	–	16.84 ± 0.07
285.65 K, x1 = 0.143	–	–	27.94 ± 0.12
285.65 K, x1 = 0.2051	–	–	49.1 ± 0.23
285.65 K, x1 = 0.3064	–	–	91.1 ± 0.83
285.65 K, x1 = 0.4879	–	–	135.58 ± 2
285.65 K, x1 = 0.6684	–	–	135.69 ± 2.1
285.65 K, x1 = 0.974	–	–	112.13 ± 1.6
288.15 K, x1 = 0.0122	–	–	1.91 ± 0.02
288.15 K, x1 = 0.0123	1002.55 ± 0.4	1586.3 ± 0.23	–
288.15 K, x1 = 0.0451	–	–	5.5 ± 0.03
288.15 K, x1 = 0.0453	1010.64 ± 0.4	1786.6 ± 0.26	–
288.15 K, x1 = 0.0999	–	–	14.79 ± 0.06
288.15 K, x1 = 0.1005	1007.9 ± 0.4	1802.4 ± 0.29	–
288.15 K, x1 = 0.143	–	–	24.41 ± 0.11
288.15 K, x1 = 0.1439	996.76 ± 0.41	1773 ± 0.34	–
288.15 K, x1 = 0.2051	–	–	42.55 ± 0.2
288.15 K, x1 = 0.2067	985.95 ± 0.41	1718.7 ± 0.41	–
288.15 K, x1 = 0.3064	–	–	78.15 ± 0.57
288.15 K, x1 = 0.3096	972.8 ± 0.42	–	–
288.15 K, x1 = 0.4879	–	–	116.04 ± 1.5
288.15 K, x1 = 0.4951	952.3 ± 0.47	1561.4 ± 0.65	–
288.15 K, x1 = 0.6684	–	–	116.61 ± 1.6
288.15 K, x1 = 0.6812	938.34 ± 0.55	1499.7 ± 0.75	–
288.15 K, x1 = 0.7974	926.65 ± 0.62	1479.8 ± 0.84	–
288.15 K, x1 = 0.974	922.1 ± 0.77	1448.3 ± 0.98	96.9 ± 1.3
290.65 K, x1 = 0.0122	–	–	1.77 ± 0.02
290.65 K, x1 = 0.0451	–	–	4.96 ± 0.03
290.65 K, x1 = 0.0999	–	–	13.09 ± 0.06
290.65 K, x1 = 0.143	–	–	21.48 ± 0.09
290.65 K, x1 = 0.2051	–	–	37.08 ± 0.17
290.65 K, x1 = 0.3064	–	–	67.44 ± 0.39
290.65 K, x1 = 0.4879	–	–	99.81 ± 1.1
290.65 K, x1 = 0.6684	–	–	100.54 ± 1.2
290.65 K, x1 = 0.974	–	–	84.07 ± 1
293.15 K, x1 = 0.0122	–	–	1.64 ± 0.02
293.15 K, x1 = 0.0123	1001.45 ± 0.4	1594.8 ± 0.23	–
293.15 K, x1 = 0.0451	–	–	4.49 ± 0.03
293.15 K, x1 = 0.0453	1008.2 ± 0.4	1779.5 ± 0.26	–
293.15 K, x1 = 0.0999	–	–	11.64 ± 0.05
293.15 K, x1 = 0.1005	1004.13 ± 0.4	1789.3 ± 0.29	–
293.15 K, x1 = 0.143	–	–	18.97 ± 0.08
293.15 K, x1 = 0.1439	992.35 ± 0.41	1759.3 ± 0.34	–
293.15 K, x1 = 0.2051	–	–	32.47 ± 0.15
293.15 K, x1 = 0.2067	984.2 ± 0.41	1705.2 ± 0.41	–
293.15 K, x1 = 0.3064	–	–	58.44 ± 0.27
293.15 K, x1 = 0.3096	969.35 ± 0.42	1629.1 ± 0.49	–
293.15 K, x1 = 0.4879	–	–	86.09 ± 0.8
293.15 K, x1 = 0.4951	949.58 ± 0.47	1539.3 ± 0.63	–
293.15 K, x1 = 0.6684	–	–	87.06 ± 0.9
293.15 K, x1 = 0.6812	–	1485.3 ± 0.75	–
293.15 K, x1 = 0.7974	–	1464.7 ± 0.84	–
293.15 K, x1 = 0.974	–	1433.9 ± 0.98	73.19 ± 0.81
